A short description of this series: wn = mass fraction of the nth substance listed. The settings on record: 298.15 K, Wilhelmy plate method.

Turning to `CC(=O)[O-].CCCCCCn1cc[n+](C)c1` [3-hexyl-1-methylimidazolium acetate] + O, the surface tension liquid-gas (as a rule, the work needed to enlarge the surface of a liquid by unit area) was 66.55 mN/m (w1 = 7e-05); 60.77 mN/m (w1 = 0.00069); 51.97 mN/m (w1 = 0.01013); 41 mN/m (w1 = 0.3005); 36 mN/m (w1 = 1).

For the origin of these results see the NIST ThermoML archive (doi:10.1016/j.fluid.2018.11.010).
